Measurements published in ChEMBL document CHEMBL1201862, “PubChem BioAssay data set” (2004).
One block for each compound: values may come before it. Calls of active or inactive are those of the source.

Legend:
Beta-galactosidase = Beta-galactosidase (Escherichia coli, UniProt Q8VNN2); experiment: beta-galactosidase enzyme inhibitors and activators, dose response, artefact control for CCR6 antagonist project, biochemical, E. coli enzyme, set 3 (AID 504712); assay type: functional
[1] = molecular target: T1, C-C chemokine receptor type 6 (Homo sapiens, UniProt P51684); experiment: CCR6 receptor antagonists, dose response, cell-based, luminescent beta-arrestin readout (AID 504728); assay type: functional
T1 sequence (P51684 whole entry): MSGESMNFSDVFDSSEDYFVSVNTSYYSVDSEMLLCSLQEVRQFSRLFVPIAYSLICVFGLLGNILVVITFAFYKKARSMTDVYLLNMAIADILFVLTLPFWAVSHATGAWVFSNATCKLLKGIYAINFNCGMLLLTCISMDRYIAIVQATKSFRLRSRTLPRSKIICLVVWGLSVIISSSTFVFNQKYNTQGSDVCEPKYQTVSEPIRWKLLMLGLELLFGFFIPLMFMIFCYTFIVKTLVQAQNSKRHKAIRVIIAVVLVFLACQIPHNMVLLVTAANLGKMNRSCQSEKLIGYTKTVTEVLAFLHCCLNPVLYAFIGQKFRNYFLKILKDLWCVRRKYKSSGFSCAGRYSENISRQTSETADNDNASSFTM

[2] = molecular target: Alkaline phosphatase, placental type (Homo sapiens, UniProt P05187); experiment: PLAP enzyme inhibitors, confirmation, biochemical, luminescence (AID 1512); assay type: functional
Alkaline phosphatase, placental type, sequence (P05187 whole entry): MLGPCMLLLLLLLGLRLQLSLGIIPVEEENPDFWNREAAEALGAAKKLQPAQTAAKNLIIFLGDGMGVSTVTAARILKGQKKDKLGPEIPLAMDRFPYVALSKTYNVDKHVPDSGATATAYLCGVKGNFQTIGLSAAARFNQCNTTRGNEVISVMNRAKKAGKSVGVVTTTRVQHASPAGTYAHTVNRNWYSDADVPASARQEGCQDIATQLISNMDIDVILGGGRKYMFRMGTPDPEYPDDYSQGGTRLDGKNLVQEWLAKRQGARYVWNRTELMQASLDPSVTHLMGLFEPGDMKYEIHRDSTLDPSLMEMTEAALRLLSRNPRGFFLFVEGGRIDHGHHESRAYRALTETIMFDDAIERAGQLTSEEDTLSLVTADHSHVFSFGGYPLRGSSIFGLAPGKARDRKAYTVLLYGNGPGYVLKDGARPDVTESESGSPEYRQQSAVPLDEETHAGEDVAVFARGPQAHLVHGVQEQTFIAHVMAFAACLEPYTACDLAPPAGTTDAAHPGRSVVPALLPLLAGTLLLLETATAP

Aminopeptidase N = molecular target: T2, Aminopeptidase N (Plasmodium falciparum FcB1/Columbia, UniProt O96935); experiment: P. falciparum M1AAP inhibitors, biochemical, fluorogenic H-Leu-NHMec substrate, 1536-well (AID 1445); set-up: species or system Plasmodium falciparum 3D7, 3D7
T2 sequence (O96935 whole entry): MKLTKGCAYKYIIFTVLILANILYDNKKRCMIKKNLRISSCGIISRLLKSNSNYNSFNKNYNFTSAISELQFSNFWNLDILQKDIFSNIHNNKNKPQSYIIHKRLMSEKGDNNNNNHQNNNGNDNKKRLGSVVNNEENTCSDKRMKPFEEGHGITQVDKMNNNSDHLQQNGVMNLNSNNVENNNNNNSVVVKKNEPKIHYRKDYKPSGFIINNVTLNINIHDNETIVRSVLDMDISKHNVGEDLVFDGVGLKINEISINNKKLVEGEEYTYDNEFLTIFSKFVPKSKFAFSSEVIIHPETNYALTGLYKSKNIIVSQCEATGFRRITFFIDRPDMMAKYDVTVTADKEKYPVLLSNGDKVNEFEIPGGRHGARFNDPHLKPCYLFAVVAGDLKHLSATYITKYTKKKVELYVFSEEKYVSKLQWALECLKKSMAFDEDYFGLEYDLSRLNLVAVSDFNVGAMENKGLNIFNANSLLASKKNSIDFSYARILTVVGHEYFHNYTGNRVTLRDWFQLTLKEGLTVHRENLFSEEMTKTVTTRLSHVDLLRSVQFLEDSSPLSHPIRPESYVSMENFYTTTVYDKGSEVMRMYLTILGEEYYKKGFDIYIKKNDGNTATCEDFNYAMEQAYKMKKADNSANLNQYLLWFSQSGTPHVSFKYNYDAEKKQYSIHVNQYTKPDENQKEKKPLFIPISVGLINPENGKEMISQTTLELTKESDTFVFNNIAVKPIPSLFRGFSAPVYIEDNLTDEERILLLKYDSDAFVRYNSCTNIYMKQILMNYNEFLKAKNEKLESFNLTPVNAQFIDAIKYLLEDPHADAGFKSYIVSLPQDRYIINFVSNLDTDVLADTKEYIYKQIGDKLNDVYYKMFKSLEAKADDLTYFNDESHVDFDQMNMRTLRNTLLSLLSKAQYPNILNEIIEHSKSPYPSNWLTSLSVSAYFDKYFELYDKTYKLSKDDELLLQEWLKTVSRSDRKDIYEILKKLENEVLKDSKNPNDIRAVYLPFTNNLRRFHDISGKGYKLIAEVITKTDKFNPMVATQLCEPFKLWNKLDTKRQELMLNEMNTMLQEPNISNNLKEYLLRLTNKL

Hexokinase = molecular target: T3, Hexokinase (Trypanosoma brucei, UniProt Q38C41); experiment: Confirmation assay for inhibitors of Trypanosoma brucei hexokinase 1-Analogue-first series. [Related pubchem assays (depositor defined):AID1430, AID1632, AID2516, AID2560, AID2579, AID2600, AID449725, AID492951]; assay type: functional
T3 sequence (Q38C41 whole entry): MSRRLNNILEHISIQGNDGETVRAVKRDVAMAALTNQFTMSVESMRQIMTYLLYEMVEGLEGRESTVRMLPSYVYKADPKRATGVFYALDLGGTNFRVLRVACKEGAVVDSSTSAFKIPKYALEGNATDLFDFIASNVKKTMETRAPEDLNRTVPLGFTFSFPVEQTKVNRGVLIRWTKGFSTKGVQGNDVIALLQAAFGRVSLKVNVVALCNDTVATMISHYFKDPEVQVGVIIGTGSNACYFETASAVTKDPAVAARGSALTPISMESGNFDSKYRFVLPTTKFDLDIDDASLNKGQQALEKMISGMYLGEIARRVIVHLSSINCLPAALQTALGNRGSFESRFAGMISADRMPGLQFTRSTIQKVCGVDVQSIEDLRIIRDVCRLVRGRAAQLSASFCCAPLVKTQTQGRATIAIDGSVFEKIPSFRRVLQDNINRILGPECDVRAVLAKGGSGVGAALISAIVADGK

[3] = molecular target: T4, Voltage-gated N-type calcium channel alpha-1B subunit/Amyloid beta A4 precursor protein-binding family A member 1 (Homo sapiens, UniProt Q00975+Q02410); assay type: protein assay
T4 sequence (Q00975 whole entry): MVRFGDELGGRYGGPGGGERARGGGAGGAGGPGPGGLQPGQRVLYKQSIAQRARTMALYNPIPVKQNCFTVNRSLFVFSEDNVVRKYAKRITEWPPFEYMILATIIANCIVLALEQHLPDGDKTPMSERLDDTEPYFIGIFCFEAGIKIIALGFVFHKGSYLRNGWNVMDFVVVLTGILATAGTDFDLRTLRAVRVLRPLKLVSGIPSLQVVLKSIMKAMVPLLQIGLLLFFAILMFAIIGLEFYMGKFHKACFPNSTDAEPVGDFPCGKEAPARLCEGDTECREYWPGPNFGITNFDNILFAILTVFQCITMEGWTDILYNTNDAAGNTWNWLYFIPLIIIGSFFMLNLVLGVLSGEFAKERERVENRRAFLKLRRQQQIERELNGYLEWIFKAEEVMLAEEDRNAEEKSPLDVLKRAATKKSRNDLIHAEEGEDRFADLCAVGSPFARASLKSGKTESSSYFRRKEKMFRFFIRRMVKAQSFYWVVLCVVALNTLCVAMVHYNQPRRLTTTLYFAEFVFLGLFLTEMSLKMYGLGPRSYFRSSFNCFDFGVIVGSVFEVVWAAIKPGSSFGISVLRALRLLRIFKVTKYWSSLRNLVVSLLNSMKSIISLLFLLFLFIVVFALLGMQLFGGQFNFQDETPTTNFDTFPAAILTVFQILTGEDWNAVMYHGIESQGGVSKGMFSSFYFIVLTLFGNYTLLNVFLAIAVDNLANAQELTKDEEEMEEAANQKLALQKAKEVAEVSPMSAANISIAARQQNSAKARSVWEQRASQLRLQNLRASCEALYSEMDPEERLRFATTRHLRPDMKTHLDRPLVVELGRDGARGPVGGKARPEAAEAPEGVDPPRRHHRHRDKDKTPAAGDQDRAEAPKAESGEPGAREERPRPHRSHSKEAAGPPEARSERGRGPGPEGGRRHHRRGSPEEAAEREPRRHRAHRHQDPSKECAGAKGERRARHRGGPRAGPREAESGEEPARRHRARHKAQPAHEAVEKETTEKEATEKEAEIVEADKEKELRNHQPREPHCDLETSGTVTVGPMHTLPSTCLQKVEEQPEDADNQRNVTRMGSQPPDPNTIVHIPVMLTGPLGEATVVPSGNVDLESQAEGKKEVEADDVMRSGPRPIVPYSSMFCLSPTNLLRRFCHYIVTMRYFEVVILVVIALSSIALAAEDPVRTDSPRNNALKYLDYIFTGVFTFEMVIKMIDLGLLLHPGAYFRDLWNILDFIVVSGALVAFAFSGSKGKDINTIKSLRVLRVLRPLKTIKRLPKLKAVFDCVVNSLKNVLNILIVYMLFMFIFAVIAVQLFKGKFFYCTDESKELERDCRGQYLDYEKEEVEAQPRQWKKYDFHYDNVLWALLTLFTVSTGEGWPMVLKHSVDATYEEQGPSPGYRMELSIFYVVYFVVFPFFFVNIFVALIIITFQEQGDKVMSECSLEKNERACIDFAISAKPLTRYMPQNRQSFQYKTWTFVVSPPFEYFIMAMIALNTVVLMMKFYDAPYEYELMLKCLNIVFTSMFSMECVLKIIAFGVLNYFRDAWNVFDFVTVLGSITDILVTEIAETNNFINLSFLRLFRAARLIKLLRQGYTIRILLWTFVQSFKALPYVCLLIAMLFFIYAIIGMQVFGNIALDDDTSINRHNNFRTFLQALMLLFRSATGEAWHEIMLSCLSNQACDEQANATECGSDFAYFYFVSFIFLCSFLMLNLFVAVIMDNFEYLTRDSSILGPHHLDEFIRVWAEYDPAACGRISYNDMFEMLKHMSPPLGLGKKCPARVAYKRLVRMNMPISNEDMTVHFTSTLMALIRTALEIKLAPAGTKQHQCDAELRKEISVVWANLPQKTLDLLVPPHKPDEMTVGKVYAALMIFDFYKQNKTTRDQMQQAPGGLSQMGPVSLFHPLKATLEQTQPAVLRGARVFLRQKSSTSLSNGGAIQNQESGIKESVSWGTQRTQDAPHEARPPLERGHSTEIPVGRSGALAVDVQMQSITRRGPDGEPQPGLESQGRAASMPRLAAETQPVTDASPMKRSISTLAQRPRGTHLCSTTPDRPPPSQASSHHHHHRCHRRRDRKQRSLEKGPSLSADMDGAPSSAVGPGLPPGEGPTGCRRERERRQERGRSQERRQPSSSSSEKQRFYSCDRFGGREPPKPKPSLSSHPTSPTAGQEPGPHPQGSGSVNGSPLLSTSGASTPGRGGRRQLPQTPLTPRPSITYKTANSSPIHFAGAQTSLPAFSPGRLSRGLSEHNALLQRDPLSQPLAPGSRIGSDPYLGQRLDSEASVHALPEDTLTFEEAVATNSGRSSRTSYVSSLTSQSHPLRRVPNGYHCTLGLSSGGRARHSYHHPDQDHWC
T4 sequence (Q02410 whole entry): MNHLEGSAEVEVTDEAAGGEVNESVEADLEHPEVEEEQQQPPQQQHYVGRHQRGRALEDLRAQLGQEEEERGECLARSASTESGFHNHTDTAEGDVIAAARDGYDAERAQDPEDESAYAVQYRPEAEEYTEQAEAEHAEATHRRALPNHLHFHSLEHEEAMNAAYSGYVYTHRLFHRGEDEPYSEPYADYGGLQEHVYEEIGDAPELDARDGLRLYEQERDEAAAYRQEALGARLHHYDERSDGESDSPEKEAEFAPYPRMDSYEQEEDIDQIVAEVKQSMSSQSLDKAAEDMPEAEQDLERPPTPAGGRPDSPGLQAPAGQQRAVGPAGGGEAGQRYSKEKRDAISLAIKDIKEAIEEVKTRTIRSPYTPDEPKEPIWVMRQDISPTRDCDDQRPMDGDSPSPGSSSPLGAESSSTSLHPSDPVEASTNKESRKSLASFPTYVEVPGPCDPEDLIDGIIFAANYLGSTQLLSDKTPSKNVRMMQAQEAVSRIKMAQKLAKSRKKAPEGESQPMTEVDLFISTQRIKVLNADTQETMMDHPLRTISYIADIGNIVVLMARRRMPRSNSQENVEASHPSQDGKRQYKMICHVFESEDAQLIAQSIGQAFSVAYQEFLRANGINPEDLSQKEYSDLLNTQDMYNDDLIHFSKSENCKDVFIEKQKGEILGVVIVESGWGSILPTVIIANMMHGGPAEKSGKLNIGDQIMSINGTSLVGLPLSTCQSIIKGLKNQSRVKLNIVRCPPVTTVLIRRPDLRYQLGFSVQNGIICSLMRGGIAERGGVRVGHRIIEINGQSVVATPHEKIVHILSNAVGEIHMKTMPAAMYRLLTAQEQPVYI

[4] = molecular target: T4, Voltage-gated N-type calcium channel alpha-1B subunit/Amyloid beta A4 precursor protein-binding family A member 1; assay type: protein assay; remark: listed apart in the source
[5] = control 3'UTR Renilla luciferase suppression, dose response, counter-screen for Shn3 inhibitor project, cell-based, Clone20-Shn3RL, cherry-picked (AID 624133); assay type: functional
[6] = HepG2 cell cytotoxicity, dose response, cytotoxicity control, plate reader, cherry-pick, antagonist series (AID 743416); assay type: functional, cell-based
[7] = HEK293 cell cytotoxicity, dose response, cytotoxicity control, plate reader, cherry-picked samples (AID 743446); assay type: functional, cell-based
[8] = HepG2 cell cytotoxicity, dose response, cytotoxicity control for Shn3 inhibitor project, CellTiter-Glo, cherry-picked (AID 624134); assay type: functional, cell-based
[9] = MC4R antagonists, dose response, counter-screen for LGR2 antagonist project, cell-based, plate reader, cherry pick (AID 743444); assay type: functional;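 further: transfected HEK 293 cells stimulated with alpha-MSH peptide; potency of inhibitors of the alpha-MSH evoked signal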
[10] = Shn3 3'UTR reporter inhibitors, dose response, cell-based, Clone20 osteoblasts, firefly luciferase, cherry-picked (AID 624132); assay type: functional;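 further: firefly luciferase luminescence from reporter carrying the Shn3 3'UTR in osteoblasts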
Paired box protein Pax-8 = Paired box protein Pax-8 (Homo sapiens, UniProt Q06710); experiment: inhibitors of PAX8-driven TPO luciferase reporter, dose response, RMG-I cells, cherry-pick (AID 687027); assay type: functional, cell-based;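 further: luciferase reporter driven by Pax8 target thyroperoxidase promoter measured by SteadyGlo luminescence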
[11] = molecular target: Photoreceptor-specific nuclear receptor (Homo sapiens, UniProt Q9Y5X4); assay type: functional, cell-based;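 further: CHO-S cells with Gal4-NCOR and VP16-NR2E3 two-hybrid luciferase reporter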
[12] = LGR2 antagonists, dose response, cell-based, HEK293, CRE-luciferase reporter, cherry pick, set 2 (AID 743343); assay type: functional;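 further: transfected cells were stimulated with diluted bursicon conditioned medium after compound addition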
[13] = A549 cell cytotoxicity, dose response, cytotoxicity control, plate reader, cherry-pick, antagonist series (AID 743412); assay type: functional, cell-based
[14] = molecular target: T5, Corticotropin-releasing factor receptor 2/Corticotropin-releasing factor-binding protein (Homo sapiens, UniProt P24387+Q13324); experiment: activators of CRF receptor 2 with binding protein – uHTS hits, confirmation (AID 602473); assay type: functional; settings: read-out: EC50_Mean
T5 sequence (Q13324 whole entry): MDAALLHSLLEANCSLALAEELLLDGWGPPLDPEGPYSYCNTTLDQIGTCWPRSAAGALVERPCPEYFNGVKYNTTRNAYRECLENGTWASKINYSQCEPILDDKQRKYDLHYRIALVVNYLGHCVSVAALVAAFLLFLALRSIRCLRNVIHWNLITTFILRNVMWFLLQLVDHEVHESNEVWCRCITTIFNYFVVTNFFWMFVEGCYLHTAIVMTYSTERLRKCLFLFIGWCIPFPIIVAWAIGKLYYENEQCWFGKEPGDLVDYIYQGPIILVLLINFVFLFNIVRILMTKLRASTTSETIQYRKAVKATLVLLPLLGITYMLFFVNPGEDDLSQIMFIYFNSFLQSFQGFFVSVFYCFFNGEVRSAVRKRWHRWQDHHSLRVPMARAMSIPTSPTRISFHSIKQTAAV
T5 sequence (P24387 whole entry): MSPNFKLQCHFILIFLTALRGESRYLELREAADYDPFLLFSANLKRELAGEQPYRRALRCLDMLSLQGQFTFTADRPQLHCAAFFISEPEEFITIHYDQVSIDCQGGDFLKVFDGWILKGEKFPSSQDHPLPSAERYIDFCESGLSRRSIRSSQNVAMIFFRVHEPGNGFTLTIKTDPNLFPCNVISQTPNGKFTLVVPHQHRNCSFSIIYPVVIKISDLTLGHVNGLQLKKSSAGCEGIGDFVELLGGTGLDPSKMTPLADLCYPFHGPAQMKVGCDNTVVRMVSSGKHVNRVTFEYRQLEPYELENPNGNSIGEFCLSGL

[15] = molecular target: Heat shock protein HSP 90-alpha (Homo sapiens, UniProt P07900); assay type: functional, organism-based
[16] = molecular target: T5, Corticotropin-releasing factor receptor 2/Corticotropin-releasing factor-binding protein; experiment: Dose Response confirmation of uHTS hits for small molecule antagonists of the CRF-binding protein and CRF-R2 receptor complex.; assay type: functional; settings: read-out: IC50_Mean
CAAX prenyl protease 2 = molecular target: T6, CAAX prenyl protease 2 (Saccharomyces cerevisiae S288c, UniProt Q03530); assay type: biochemical
T6 sequence (Q03530 whole entry): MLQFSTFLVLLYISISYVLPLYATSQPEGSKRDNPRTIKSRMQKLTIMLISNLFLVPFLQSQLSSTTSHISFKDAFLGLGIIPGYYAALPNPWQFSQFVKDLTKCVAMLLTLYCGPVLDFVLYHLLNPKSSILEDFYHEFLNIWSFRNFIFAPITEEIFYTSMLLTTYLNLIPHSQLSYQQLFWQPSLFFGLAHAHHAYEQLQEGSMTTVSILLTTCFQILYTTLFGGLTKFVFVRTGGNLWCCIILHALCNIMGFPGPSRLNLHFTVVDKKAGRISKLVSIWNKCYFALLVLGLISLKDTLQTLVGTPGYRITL

Beta-galactosidase, sequence (Q8VNN2 whole entry): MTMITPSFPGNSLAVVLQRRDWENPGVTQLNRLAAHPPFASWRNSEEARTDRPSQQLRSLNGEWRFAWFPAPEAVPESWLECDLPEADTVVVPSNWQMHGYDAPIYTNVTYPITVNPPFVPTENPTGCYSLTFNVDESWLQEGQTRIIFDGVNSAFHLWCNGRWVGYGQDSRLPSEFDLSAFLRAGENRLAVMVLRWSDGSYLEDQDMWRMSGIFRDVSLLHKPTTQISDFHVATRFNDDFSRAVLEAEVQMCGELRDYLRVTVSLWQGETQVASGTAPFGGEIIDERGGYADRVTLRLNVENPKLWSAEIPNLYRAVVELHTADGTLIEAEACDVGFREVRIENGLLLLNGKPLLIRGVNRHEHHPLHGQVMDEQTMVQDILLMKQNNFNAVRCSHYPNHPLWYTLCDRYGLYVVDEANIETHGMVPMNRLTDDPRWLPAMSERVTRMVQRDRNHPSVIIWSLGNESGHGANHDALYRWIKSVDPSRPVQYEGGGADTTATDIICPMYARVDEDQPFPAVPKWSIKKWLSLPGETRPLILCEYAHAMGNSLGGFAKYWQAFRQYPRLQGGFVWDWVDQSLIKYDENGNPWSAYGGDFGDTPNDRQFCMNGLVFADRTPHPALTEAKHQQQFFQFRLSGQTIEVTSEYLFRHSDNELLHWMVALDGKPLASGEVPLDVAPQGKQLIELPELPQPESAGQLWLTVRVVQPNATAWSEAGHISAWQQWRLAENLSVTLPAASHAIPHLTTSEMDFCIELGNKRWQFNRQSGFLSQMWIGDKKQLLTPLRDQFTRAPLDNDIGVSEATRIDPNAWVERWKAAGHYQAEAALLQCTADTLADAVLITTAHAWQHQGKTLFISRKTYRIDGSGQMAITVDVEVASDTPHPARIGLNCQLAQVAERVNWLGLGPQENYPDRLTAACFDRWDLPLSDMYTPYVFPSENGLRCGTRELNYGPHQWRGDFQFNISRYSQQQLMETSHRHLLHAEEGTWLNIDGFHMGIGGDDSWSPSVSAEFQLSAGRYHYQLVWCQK

SMILES: CC(=O)O/C(=C1\CC2C3CC=C4CC(OC(C)=O)CCC4(C)C3CCC2(C)C1=O)C(F)(F)F (stereo unspecified)
- IC50 (Beta-galactosidase): > 66.6 µM (inactive)
- IC50 [1]: > 66.6 µM (inactive)

SMILES: O=C(Nc1cc(Cl)ccc1C(=O)O)c1ccc2ccccc2c1
- IC50 (Hexokinase): 5.41 µM (active)

SMILES: COC(=O)c1ccc(/C=C2/SC(=S)N(CCCC(=O)Nc3ccc(O)cc3)C2=O)cc1
- IC50 [3]: 35.4 µM (active)
- IC50 [4]: > 50 µM (inactive)

SMILES: CC(=O)Nc1ccc(Sc2ccc([N+](=O)[O-])o2)cc1
- AC50 [5]: 11.2 µM (active)
- IC50 (Beta-galactosidase): > 66.6 µM (inactive)
- AC50 [6]: 13.8 µM (active)
- AC50 [7]: 7.13 µM (active)
- IC50 [1]: > 66.6 µM (inactive)
- AC50 [8]: 20.6 µM (active)
- AC50 [9]: 22.7 µM (active)
- AC50 [10]: 2.15 µM (active)
- AC50 (Paired box protein Pax-8): 7.36 µM (active)
- IC50 [11]: 2.72 µM (active)
- AC50 [12]: 26.4 µM (active)
- AC50 [13]: 37 µM (active)

SMILES: Cc1ccc(C(=O)Nc2cc(Cl)ccc2C(=O)O)cc1C
- IC50 (Hexokinase): 10.7 µM (active)

Next, values leading:

- IC50 [2]: > 100 µM (inactive)
SMILES: Cn1cc(Br)c(C(=O)NNC(=O)c2cccc(Br)c2)n1

- IC50 (Aminopeptidase N): 50.2 µM (active)
SMILES: O=C1N=C(NS(=O)(=O)Cc2ccccc2)S/C1=C/c1cccc([N+](=O)[O-])c1

- EC50 [14]: > 53 µM (inactive)
- IC50 (Beta-galactosidase): > 66.6 µM (inactive)
- AC50 [15]: 0.902 µM (active)
- IC50 [1]: 21.1 µM (inactive)
- IC50 [16]: > 47.1 µM (inactive)
SMILES: COc1ccc(/C=C2/CCC(CN3CCOCC3)C2=O)cc1 (stereo unspecified)

- AC50 (CAAX prenyl protease 2): 22.8 µM (active)
SMILES: CC1CCN(C(=O)C2CCN(S(=O)(=O)c3ccc(-n4cnnn4)cc3)CC2)CC1
